Experimental data reported in patent US8362216B2, “Method of detection using antibodies that specifically bind hedgehog-derived polypeptides” (The Johns Hopkins University School of Medicine, priority 1994, dated 2013).
“Also recorded” adds a separate entry of the source.

Biological target: His6Hh-C protein (Drosophila melanogaster, UniProt Q02936, DEL89-254)
Assay: In vitro autocleavage reaction of bacterially expressed His6Hh-C protein (DTT / lipid stimulation)
Conditions: lipid added with 1 mM DTT (cholesterol 0.35 mM)

Chain of His6Hh-C protein (Q02936 other isoform, or with tags, fused parts or gaps DEL89-254): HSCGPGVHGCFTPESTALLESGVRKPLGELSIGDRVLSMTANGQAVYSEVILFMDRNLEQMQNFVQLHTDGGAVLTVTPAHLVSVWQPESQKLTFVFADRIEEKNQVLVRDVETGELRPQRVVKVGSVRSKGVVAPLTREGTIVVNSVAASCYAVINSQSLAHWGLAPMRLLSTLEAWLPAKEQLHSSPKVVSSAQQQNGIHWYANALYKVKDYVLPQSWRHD

CC(C)CCC[C@@H](C)[C@H]1CC[C@H]2[C@@H]3CC=C4C[C@@H](O)CC[C@]4(C)[C@H]3CC[C@]12C [cholesterol]
Stimulation of His6Hh-C autocleavage in vitro: stimulates His2Hh-C autocleavage; also recorded: displayed stimulatory activity similar to that observed with lipids extracted from spot B
